Results from PubChem BioAssay (NCI).
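Values below derive from 48-hour exposures of cells grown in 96-well plates, with endpoints linearly interpolated between the two concentrations bracketing the appropriate inhibition level. TGI denotes the concentration required for complete inhibition of growth.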

Experiments:
Assay in all cases: DTP human tumour cell line panel, 48 h
[1] = test system: HCT-116 colon
[2] = test system: TK-10 renal
[3] = test system: MCF7 breast
[4] = test system: CCRF-CEM leukemia
[5] = test system: T-47D breast
[6] = test system: MDA-MB-435
[7] = test system: PC-3 prostate
[8] = test system: SF-295 CNS
[9] = test system: MDA-MB-231 breast
[10] = test system: SW-620 colon
[11] = test system: DU-145 prostate
[12] = test system: SK-MEL-5 melanoma
[13] = test system: HL-60(TB) leukemia
[14] = test system: SK-MEL-2 melanoma
[15] = test system: HCC-2998 colon
[16] = test system: SN12C renal
[17] = test system: SK-MEL-28 melanoma
[18] = test system: NCI-H522 lung
[19] = test system: OVCAR-3 ovarian
[20] = test system: CAKI-1 renal

SMILES	TGI [1] [µM]	TGI [2] [µM]	TGI [3] [µM]	TGI [4] [µM]	TGI [5] [µM]	TGI [6] [µM]	TGI [7] [µM]	TGI [8] [µM]	TGI [9] [µM]	TGI [10] [µM]	TGI [11] [µM]	TGI [12] [µM]	TGI [13] [µM]	TGI [14] [µM]	TGI [15] [µM]	TGI [16] [µM]	TGI [17] [µM]	TGI [18] [µM]	TGI [19] [µM]	TGI [20] [µM]
Cc1ccc(S(=O)(=O)N2CCNCCN(S(=O)(=O)c3ccc(C)cc3)CCN(S(=O)(=O)c3ccc(C)cc3)CC2)cc1	> 100	> 100	> 100	> 100	> 100	> 100	> 100	> 100	> 100	> 100	> 100	> 100	> 100	> 100	> 100	> 100	> 100	> 100	> 100	> 100
C=CCCCCCCCCCOC1C=CC(OC(C)=O)C(COC(C)=O)O1 (stereo not given)	> 100	> 100	> 100	> 100	> 100	> 100	> 100	> 100	> 100	> 100	> 100	> 100	> 100	> 100	> 100	> 100	> 100	> 100	> 100	> 100
COc1cc2c(cc1OC)-c1cc3cc(OC)c(OC)cc3c(=O)n1CC2	> 53.4	> 100	> 100	> 100	8.34	> 100	> 100	> 100	> 70.4	> 100	> 51.5	25.9	> 100	> 72.9	> 100	> 100	> 100	> 25.7	> 100	> 30.3
COc1ccc2cc(C(=O)NCCCNC(=O)c3ccc4cc(OC)ccc4c3)ccc2c1	> 100	> 100	> 100	> 100	> 100	> 100	> 100	> 83.8	> 74.4	> 100	> 100	> 100	> 100	> 100	> 100	> 100	> 100	> 100	> 100	> 100
CCOC(=O)Cn1c(=O)c2cc(-c3ccccc3)cc3c(Cl)nc4c(OC)c(OC)cc1c4c32	29.1	99.4	22.7	> 56.9	> 100	38.3	55.4	> 100	> 100	> 61.2	> 61	> 59.9	27.4	35.4	34.5	> 100	55.4	39.4	60.1	> 100
N=c1c2c(=S)n(-c3ccccc3)c(=S)n(-c3ccccc3)c2nc(SCCN2CCOCC2)n1-c1ccccc1	3.45	3.1	> 100	3.19	8.03	3.4	3.35	19.2	4.73	3.96	3.22	6.66	3.31	8.17	3.24	3.71	4.39	3.16	3.3	3.99
C=C(C(=O)OC)c1cc2ccccc2n1S(=O)(=O)c1ccccc1	> 34.4	3.91	8.11	4.18	5.51	7.28	9.51	20.8	6.16	4.63	8.51	5.36	10.2	10.5	8.35	8.18	5.79	2.54	11.4	2.4
Cn1c(=O)c2c(nc(Nc3ccc(Cl)cc3)n3c(=O)n(-c4ccccc4)c(=O)n23)n(C)c1=O	> 100	> 100	> 100	> 100	> 100	> 100	> 100	> 100	> 100	> 100	> 100	> 100	> 100	> 100	> 100	> 100	> 100	> 100	> 100	> 100
Oc1cccc(-c2cn3cc(C(F)(F)F)ccc3n2)c1	> 100	73.3	> 100	77.5	21.2	> 100	> 100	94	> 100	> 100	72.5	56.5	> 100	> 100	54	> 100	> 100	35.4	86.7	> 100
Clc1ncc(Cl)c(Cl)n1	8.01	23.1	4.8	> 100	10	7.52	5.64	26.6	7.82	2.94	24.1	12.7	2.36	6.08	15.1	5.91	10.9	5.69	14.3	3.25
CC12CCC(C(Nc3ccccn3)C1=O)C2(C)C (stereo not given)	> 100	> 100	> 100	> 100	> 100	> 100	> 100	> 100	> 100	> 100	> 100	> 100	> 100	> 100	> 100	> 100	> 100	> 100	> 100	> 100
Nc1ccc(Oc2ccc(C34CC5CC6C3CC3CC4C(C5)C6(c4ccc(Oc5ccc(N)c(O)c5)cc4)C3)cc2)cc1O	11.1	19	> 42.3	40.3	> 63.7	29.3	11.9	15.3	14.9	> 54.8	> 43.5	9.24	3.27	39	7.57	11.4	23.6	5.73	8.28	27.7
S=C(Nc1ccccn1)Nc1ccccc1Cl	> 100	> 100	> 100	> 100	> 100	> 100	> 100	> 100	> 100	> 100	> 100	> 100	> 100	> 100	> 100	> 100	> 100	37.9	> 100	> 100
